Measured values from patent US20070208069A1, “PHARMACEUTICAL FORMULATIONS OF AN ANHYDROUS CRYSTAL FORM OF 2-(3-FLUORO-4-HYDROXYPHENYL)-7-VINYL-1,3-BENZOXAZOL-5-OL” (Wyeth, priority 2006, published 2007).

Legend:
Type in all cases: physicochemical
[1] = Chemical stability on storage (HPLC); conditions: non-micronized, 40° C./75% RH, three months
Experimental: (§1) Non-micronized samples of monohydrate and anhydrate were stored at 40° C./75% RH for three months. The monohydrate was also stored at 40° C. without humidity control. During the three months, the samples were checked after two weeks, one month, two months, and three months.

[2] = Solid-state stability of crystal forms (XRPD, TGA); conditions: for Long term crystal form stability (XRPD, TGA): three months (monohydrate also 40° C. without humidity control)
Experimental: […] At room temperature, humidity was maintained at 0% RH. Humidity was not controlled for the higher temperatures.
The samples were analyzed by XRPD and TGA.
as §1

[3] = Dynamic vapor sorption (hygroscopicity); conditions: for DVS gain: 0–90% RH
Source text: Dynamic Vapor Sorption (Allentown, Pa.) was used to measure the hygroscopicity of the anhydrate and monohydrate of the invention (see FIGS. 6 and 7). The step conditions were three hours each at 0%, 30%, 52.5%, 75% and 90% RH, two full cycles.

[4] = Water solubility of the two crystal forms

| SMILES | Long term chemical stability (HPLC) [1] | Crystal form stability (XRPD) ([2]; micronized, 25° C./60% RH, three months) | Crystal form stability (XRPD) ([2]; micronized, 40° C./75% RH, one month) | Crystal form stability (XRPD) ([2]; non-micronized, 40° C./75% RH) | Long term crystal form stability (XRPD, TGA) ([2]; non-micronized, 40° C./75% RH) | Hygroscopicity (DVS), in words [3] | DVS gain [3] | Water solubility compared between forms, in words [4] | Medium term stability (XRPD, TGA) ([2]; 56° C., humidity not controlled, one week) | Medium term stability (XRPD, TGA) ([2]; 70° C., 1 day) | Medium term stability (XRPD, TGA) ([2]; 70° C., 4 days) | Medium term stability (XRPD, TGA) ([2]; 70° C., 7 days) | Short term stability (XRPD) ([2]; 70° C., one hour) | Short term stability (XRPD) ([2]; 90° C., one half hour) | Short term stability (XRPD) ([2]; 90° C., one hour) | Medium term stability (XRPD, TGA) ([2]; room temperature, 0% RH, one week) |
| --- | --- | --- | --- | --- | --- | --- | --- | --- | --- | --- | --- | --- | --- | --- | --- | --- |
| C=Cc1cc(O)cc2nc(-c3ccc(O)c(F)c3)oc12 [Anhydrate, 2-(3-fluoro-4-hydroxyphenyl)-7-vinyl-1,3-benzoxazol-5-ol] | chemically stable | did not transform to the monohydrate | did partially transform to the monohydrate | did not show any obvious transformation | did not transform | largely non-hygroscopic | 0.2% gain (0–90% RH) | – | – | – | – | – | – | – | – | – |
| C=Cc1cc(O)cc2nc(-c3ccc(O)c(F)c3)oc12 [Monohydrate, 2-(3-fluoro-4-hydroxyphenyl)-7-vinyl-1,3-benzoxazol-5-ol] | chemically stable | – | – | – | did not transform | largely non-hygroscopic | 0.1% gain (0–90% RH) | significantly lower solubility than the anhydrate | no obvious dehydration | no obvious hydration | partially dehydrated | mostly dehydrated | stable | partially dehydrated | completely dehydrated | no obvious dehydration |
